From patent US5304113A, “Method of eradicating infectious biological contaminants” (The MCW Research Foundation, Inc., priority 1990, dated 1994)
Entries after “also recorded” stand apart in the source; their conditions may differ.

Legend:
[1] = system: mature blood cells; assay: toxicity of photosensitization to mature blood cells; type: cell-based, mouse; settings: photosensitization treatment
Source text: 4) The same treatment protocol was much less toxic to mature blood cells and normal pluripotent hematopoietic stem cells in the mouse.
(§1) The simultaneous exposure to MC 540 and visible light also appears to kill protozoan-infected red blood cells very rapidly, but normal pluripotent hematopoietic stem cells and mature blood cells very slowly. This differential sensitivity to MC 540-mediated photolysis may be useful in purging blood and red blood cells of cell-free protozoa and protozoan-infected cells thus making the blood supply safer for use.

[2] = system: P. berghei berghei; assay: survival of mice injected with treated P. berghei-infected blood; type: in vivo
Protocol: (§2) Using the rodent malaria species, P. yoelii YM, and P. berghei berghei as model systems, the survival of mice i.v. injected with MC 540-treated and non-treated malarious blood was monitored in vivo. […] All mice receiving untreated malarious blood died rapidly. In a subsequent experiment, serial dilutions of treated (30 minutes of dye/light) or control malarious blood (30% parasitemia) were injected into recipient mice. One hundred percent of the mice receiving 10^4 treated cells survived compared to 0% of the corresponding control group. […] It is conceivable that MC 540 treatment of infected blood enhanced the immune response of the recipient mice.
In two experiments, all mice receiving P. berghei-infected blood (30% parasitemia), treated for 15-45 minutes with light and MC 540, died as did their control counterparts. However, 10% of the group receiving infected blood treated for 60 minutes with light and dye survived for the duration of the experiment (90 days).

[3] = system: Friend erythroleukemia virus complex; assay: Friend virus titer / inactivation by MC 540-mediated photosensitization; type: cell-based
Protocol: The ability of MC 540 to react with enveloped (i.e. lipid-containing) viruses was tested with the Friend erythroleukemia virus complex, the human T cell leukemia virus, HTLV-I and Herpes simplex 1. Friend virus was obtained from cell-free supernatants of cultured erythroleukemia cells or as a cell-free extract from infected animals. Simultaneous exposure to MC 540 (15 ug/ml) and light (40 J/cm^2) reduced the virus titer by ≥4 logs regardless of the origin of the virus preparation.

[4] = system: human T-cell leukemia virus type I (HTLV-I) reverse transcriptase; assay: HTLV-I inactivation: pelletable virus and reverse transcriptase activity; type: biochemical
Source text: (§3) The amount of virus that could be sedimented by centrifugation was reduced 5-fold after treatment with MC 540 and light. The remaining 80% of the virus were probably lysed. The small fraction that was sedimented was visibly stained by MC 540. It is conceivable that the sedimented virus fraction, although not lysed, had sustained enough photodynamic damages to make it noninfectious. For example, when the virus is Herpes simplex 1 the order of magnitude reduction is as high as 45 times.
(§4) Experiments with human herpes simplex virus type 1 (HSV-1), and human T-cell leukemia virus type I (HTLV-I) produced similar results. […] A limiting dilution plaque forming assay on Vero cells indicated a ≥5 log reduction (limit of detection) of the virus titer after only 10 min. of illumination. The standard illumination protocol calls for 90 min. of illumination. It is thus conceivable that the titer can be reduced by ≥45 log. Infectivity assays for HTLV-I have, unfortunately, not yet been developed. We therefore used reverse transcriptase activity as an indicator of virus destruction. Photosensitized and untreated aliquots of the same virus suspension were pelleted on a sucrose cushion. The pellet of the treated aliquot was about 5 times smaller and visibly red. Its reverse transcriptase content was reduced by more than 80% (Table 1). The balance of the enzyme activity was recovered in the supernatant. More than 80% of the original virus mass was apparently damaged so extensively (virtually "dissolved") that it was no longer pelletable by a two hour spin at 100,000×g. If the photosensitization of enveloped viruses bears any resemblance to the photosensitization of cells, it is reasonable to speculate that the pelletable material was also photodamaged and perhaps no longer infective.

[5] = system: Friend virus; assay: Friend virus disease in mice injected with photosensitized preparations; type: in vivo, B6D2F1 mice
Protocol: (§5) When cultured F4-6 erythroleukemia cells, spleen or marrow cells from diseased animals, cell-free extracts of cultured cells, spleen cells, or marrow cells, or cell-free supernatants of F-6 cultures were injected into healthy B6D2F1 mice, the spleen weights increased from 70 mg to about 2 g within two weeks. The animals became polycythemic and, eventually, died. […] Normal pluripotent hematopoietic stem cells (as determined by the ability of photosensitized marrow cells to rescue lethally irradiated syngeneic hosts) were spared by the photosensitization treatment.

[6] = system: herpes simplex virus type 1 (HSV-1); assay: limiting dilution plaque forming assay on Vero cells (Herpes simplex 1 inactivation); type: cell-based, human
Source text: as §3, §4

[7] = system: normal pluripotent hematopoietic stem cells; assay: sparing of normal pluripotent hematopoietic stem cells (rescue of lethally irradiated syngeneic hosts); type: in vivo, mouse; settings: photosensitization treatment
Protocol: as §5

[8] = system: protozoan-infected red blood cells; assay: killing of protozoan-infected red blood cells; type: cell-based; settings: simultaneous exposure to MC 540 and visible light
Source text: as §1

[9] = system: HTLV-I infected cells; assay: inactivation of HTLV-I infected cells; type: cell-based; settings: MC 540-mediated photosensitization
[10] = system: P. yoelii YM; assay: survival of mice injected with treated P. yoelii-infected blood; type: in vivo
Protocol: as §2

[11] = Acute systemic toxicity in mice (intravenous); type: in vivo, mouse (BAF1)
Protocol: The acute systemic toxicity of MC 540 was determined by injecting groups of 10 BAF1 mice intravenously with graded doses of MC 540. Survival data were plotted on a log probit scale and fitted with a least square regression line to determine LD10 and LD50 (Table 2).

[12] = system: virus-infected spleen cells, bone marrow cells, and cultured Friend erythroleukemia cells; assay: inactivation of Friend virus-infected / transformed cells by photosensitization; type: cell-based
[13] = comparison dye; cited from earlier work
[14] = illumination time reduction; settings: equimolar concentrations
Source text: An analog of MC 540 which we have labeled MC 540A (see structural formula below) reduces illumination times about 6-fold when used in equimolar concentrations. [drawing 3]
Merocyanine-mediated photolysis of tumor cells, viruses and protozoa appear to be primarily mediated by singlet oxygen. An additional 2-fold reduction in illumination time can therefore be achieved by performing the photosensitization step in the presence of deuterium oxide (D2 O).

[15] = MC 540-mediated photosensitization
[16] = preparations photosensitized and exposed to light prior to injection

Question: Which results are given for CCCCN1C(=O)C(=CC=CC=C2Oc3ccccc3N2CCCS(=O)(=O)O)C(=O)N(CCCC)C1=S [MC 540]?
Answer: effect on mature blood cells (in words) [1]: very slowly; outcome of mice receiving treated P. berghei-infected blood ([2]; 15-45 minutes light and MC 540, 30% parasitemia, two experiments): died; survival of mice receiving treated P. berghei-infected blood ([2]; 60 minutes light and dye, 90 days): 10%; inactivation of Friend virus suspensions (in words) [3, 15]: rapidly inactivated; log reduction at 15 µg/mL ([3]; light or radiation study, read-out: virus titer reduction (Friend virus)): ≥ 4; HTLV-I, Reverse Transcriptase activity ([4]; MC 540, light 90 min): 37,848 cpm; HTLV-I, Reverse Transcriptase activity ([4]; MC 540, no light): 208,548 cpm; inactivation of HTLV-I (in words) [4, 15]: rapidly inactivated; also recorded: susceptible to MC 540-mediated photosensitization; reduction of amount of virus sedimented by centrifugation (HTLV-I) ([4]; MC 540 and light): 5 fold; virus probably lysed (HTLV-I) ([4]; MC 540 and light): 80%; reduction of reverse transcriptase content of pellet (HTLV-I) ([4]; photosensitized vs untreated aliquot): more than 80%; pellet size reduction of treated aliquot (HTLV-I) ([4]; photosensitized vs untreated aliquot, sucrose cushion): about 5 times smaller; original virus mass no longer pelletable (HTLV-I) ([4]; two hour spin at 100,000×g): more than 80%; inactivation of free and intracellular Friend virus and Friend virus-infected cells ([5]; MC 540-mediated photolysis): inactivates free Friend virus, intracellular Friend virus, and Friend virus-infected cells; effect of virus preparations exposed to dye or light alone ([5]; dye alone or light alone): caused splenomegaly, polycythemia,and death; hematocrits [5, 16]: remained normal; spleen weights [5, 16]: remained normal; survival [5, 16]: the animals survived; virus titer reduction (HSV-1) ([6]; 10 min. of illumination, limit of detection): ≥ 5 log; virus titer reduction (HSV-1), conceivable for standard protocol ([6]; 90 min. of illumination, extrapolated): ≥ 45 log; inactivation of Herpes simplex (in words) [6, 15]: rapidly inactivated; also recorded: extremely susceptible; effect on normal pluripotent hematopoietic stem cells (in words) [7]: very slowly; killing of protozoan-infected red blood cells (in words) [8]: very rapidly; inactivation of HTLV-I infected cells (in words) [9]: rapidly inactivated; survival of mice receiving 10^4 treated cells ([10]; 30 minutes dye/light, 30% parasitemia, control 0%): One hundred; survival of recipient population (P. yoelii) ([10]; 60 minutes dye/light, 40%-70% parasitemia): 70%-100; protection of recipient mice (P. yoelii) ([10]; 90 minutes dye and light, 40%-70% parasitemia): total protection; protection despite exceedingly high parasitemias (P. yoelii) ([10]; all stages of development): protection by MC 540 treatment was still obtained; protection of recipient mice (P. yoelii), shorter illumination ([10]; shorter than 60 minutes illumination): partial protection; course of disease in surviving mice ([10]; some of the surviving mice, both treatments): initially showed severe symptoms of malaria (e.g. splenomegaly, anemia) but later recovered; LD50 ([11]; in vivo, mouse, intravenous, log probit fit): 84 mg/kg; LD10 (mouse) ([11]; intravenous, log probit fit): 55 mg/kg; acute systemic toxicity (in words) ([11]; mouse, in vivo): very low; acute toxicity compared with fluorescent dyes used for angiography of the retina ([11]; mouse, in vivo, iv): not more toxic than the fluorescent dyes that are commonly used for the angiography of the retina; selectivity ratio ([11]; mouse, in vivo, iv, read-out: LD10 relative to amount injected with mouse bone marrow graft): > 100000; probable cause of death after high doses (necropsy) ([11]; mouse, intravenous, high doses): formation of large emboli of precipitated dye in major blood vessel; amount injected with photosensitized marrow graft ([11]; mouse, for comparison with LD10): 0.0004 mg/kg; inactivation of Friend virus-transformed / infected cells (in words) [12, 15]: rapidly inactivated; rate of inactivation of virus-infected cells versus cell-free virus ([12]; simultaneous MC 540 (15 ug/ml) and light (40 J/cm^2)): inactivated at about the same rate as cell-free virus preparations

Question: With O=C1OC2(c3ccc(O)cc3Oc3cc(O)ccc32)c2ccccc21 [fluorescein] as the molecule, how does the “LD50 (mouse), for comparison” value [13] read?
Answer: 300 mg/kg

Question: For CCCCN1C(=O)C(=CC=CC=C2Oc3c(ccc4ccccc34)N2CCCS(=O)(=O)O)C(=O)N(CCCC)C1=S [MC 540A], which “reduction of illumination time versus MC 540” value [14] is on record?
Answer: about 6 fold
